In patent US20220402862A1 (Intellia Therapeutics, Inc., priority 2019, published 2022):

Assays:
[1] = RNA encapsulation efficiency of LNPs (Ribogreen fluorescence assay); format: physicochemical; conditions: LNP
Description: A fluorescence-based assay (Ribogreen®, ThermoFisher Scientific) is used to determine total RNA concentration and free RNA. Encapsulation efficiency is calculated as (Total RNA-Free RNA)/Total RNA. LNP samples are diluted appropriately with 1× TE buffer containing 0.2% Triton-X 100 to determine total RNA or 1× TE buffer to determine free RNA. Standard curves are prepared by utilizing the starting RNA solution used to make the compositions and diluted in 1× TE buffer +/− 0.2% Triton-X 100. Diluted RiboGreen® dye (according to the manufacturer's instructions) is then added to each of the standards and samples and allowed to incubate for approximately 10 minutes at room temperature, in the absence of light. A SpectraMax M5 Microplate Reader (Molecular Devices) is used to read the samples with excitation, auto cutoff and emission wavelengths set to 488 nm, 515 nm, and 525 nm respectively. Total RNA and free RNA are determined from the appropriate standard curves.
Encapsulation efficiency is calculated as (Total RNA-Free RNA)/Total RNA. The same procedure may be used for determining the encapsulation efficiency of a DNA-based cargo component. In a fluorescence-based assay, for single-strand DNA Oligreen Dye may be used, and for double-strand DNA, Picogreen Dye. Alternatively, the total RNA concentration can be determined by a reverse-phase ion-pairing (RP-IP) HPLC method. Triton X-100 is used to disrupt the LNPs, releasing the RNA. The RNA is then separated from the lipid components chromatographically by RP-IP HPLC and quantified against a standard curve using UV absorbance at 260 nm.

Transthyretin (TTR) = experiment: Serum TTR ELISA in mice after LNP dosing; format: in vivo, CD-1 female mice; conditions: guide G282 experiments; for Serum TTR % TSS: mouse serum TTR relative to TSS control; for Serum TTR: mouse serum, ELISA
Description: CD-1 female mice ranging from 6-10 weeks of age were used in each study. Animals were weighed and grouped according to body weight for preparing dosing solutions based on group average weight. LNPs were dosed via the lateral tail vein in a volume of 0.2 mL per animal (approximately 10 mL per kilogram body weight). The animals were periodically observed for adverse effects for at least 24 hours post dose. For studies measuring in vivo editing in liver, CD-1 female mice were dosed at 0.1 mg/kg unless otherwise noted. Animals were euthanized at 6 or 7 days by ex sanguination via cardiac puncture under isoflurane anesthesia. Liver tissue was collected from each animal for DNA extraction and analysis. Blood was collected into serum separator tubes or into tubes containing buffered sodium citrate for plasma as described herein. Cohorts of mice were measured for editing by Next-Generation Sequencing (NGS).
Blood was collected and the serum was isolated as indicated. The total mouse TTR serum levels were determined using a Mouse Prealbumin (Transthyretin) ELISA Kit (Aviva Systems Biology, Cat. OKIA00111). Briefly, sera were serial diluted with kit sample diluent to a final dilution of 10,000-fold for 0.1 mg/kg dose and final dilutions of 10,000-fold and of 2,500-fold for 0.3 mg/kg. This diluted sample was then added to the ELISA plates and the assay was carried out according to the manufacturer's directions.

[2] = Dynamic light scattering of LNPs: Z-average diameter, number average diameter, PDI; format: physicochemical; conditions: LNP
Description: Dynamic Light Scattering (“DLS”) is used to characterize the polydispersity index (“PDI”) and size of the LNPs of the present disclosure. DLS measures the scattering of light that results from subjecting a sample to a light source. PDI, as determined from DLS measurements, represents the distribution of particle size (around the mean particle size) in a population, with a perfectly uniform population having a PDI of zero.
LNP compositions are analyzed for average particle size, polydispersity index (PDI), total RNA content, encapsulation efficiency of RNA, and zeta potential. LNP compositions may be further characterized by lipid analysis, AF4-MALS, NTA, and/or cryo-EM. Average particle size and polydispersity are measured by dynamic light scattering (DLS) using a Malvern Zetasizer DLS instrument or Wyatt NanoStar. LNP samples were diluted with PBS buffer prior to being measured by DLS. Z-average diameter which is an intensity-based measurement of average particle size is reported along with number average diameter and PDI. A Malvern Zetasizer or Wyatt NanoStar instrument is also used to measure the zeta potential of the LNP. Samples are diluted 1:17 (50 μL into 800 μL) in 0.1× PBS, pH 7.4 prior to measurement.

[3] = sg:mRNA 1:1.3, N/P about 6, amine lipid/DSPC/cholesterol/PEG-2k-DMG 50/9/38/3, Table 2, Experiment 1
[4] = sg:mRNA 1:1.3, N/P about 6, 50/9/38/3, Table 2, Experiment 1
[5] = sg:mRNA 1:1, N/P about 6, amine lipid/DSPC/cholesterol/PEG-2k-DMG 50/9/38/3, Table 2, Experiments 2-20
[6] = sg:mRNA 1:1, N/P about 6, 50/9/38/3, Table 2, Experiments 2-20

Encapsulation (%) [1, 3] | Number mean (nm) [2, 4] | PDI [2, 4] | Z-avg (nm) [2, 4] | Encapsulation (%) [1, 5] | Number mean (nm) [2, 6] | PDI [2, 6] | Z-avg (nm) [2, 6] | Structure (SMILES) | Serum TTR % TSS (Transthyretin (TTR)) | Serum TTR (Transthyretin (TTR))
100% | 44.92 nm | 0.129 | 72.11 nm |  |  |  |  | CCCCC/C=C\C/C=C\CCCCCCCC(=O)OCC(COC(=O)CCC(OCCCCCCCC)OCCCCCCCC)COC(=O)OCCCN(C)CCN(C)C (stereo not drawn) [Compound 4, 13-(((4,4-bis(octyloxy)butanoyl)oxy)methyl)-2,5-dimethyl-10-oxo-9,11-dioxa-2,5-diazatetradecan-14-yl (9Z,12Z)-octadeca-9,12-dienoate] | 109% | 1347 µg/mL
98% | 50.89 nm | 0.059 | 66.28 nm |  |  |  |  | CCCCC/C=C\C/C=C\CCCCCCCC(=O)OCC(COC(=O)CCC(OCCCCCCCC)OCCCCCCCC)COC(=O)OCC1CCCN(CC)C1 (stereo not drawn) [Compound 5, 3-((4,4-bis(octyloxy)butanoyl)oxy)-2-(((((1-ethylpiperidin-3-yl)methoxy)carbonyl)oxy)methyl)propyl (9Z,12Z)-octadeca-9,12-dienoate] | 60% | 737 µg/mL
 |  |  |  | 99% | 43.91 nm | 0.126 | 67.61 nm | CCCCC/C=C\C/C=C\CCCCCCCC(=O)OCC(COC(=O)CCC(OCCCCCCCC)OCCCCCCCC)COC(=O)NCCCN(CC)CC (stereo not drawn) [Compound 7, 3-((4,4-bis(octyloxy)butanoyl)oxy)-2-((((3-(diethylamino)propyl)carbamoyl)oxy)methyl)propyl (9Z,12Z)-octadeca-9,12-dienoate] | 104% | 940 µg/mL
96% | 59.17 nm | 0.046 | 75.64 nm |  |  |  |  | CCCCC/C=C\C/C=C\CCCCCCCC(=O)OCC(COC(=O)CCC(OCCCCCCCC)OCCCCCCCC)COC(=O)OCCCN(C)C (stereo not drawn) [Compound 2, 3-((4,4-bis(octyloxy)butanoyl)oxy)-2-((((3-(dimethylamino)propoxy)carbonyl)oxy)methyl)propyl (9Z,12Z)-octadeca-9,12-dienoate] | 90% | 1114 µg/mL
 |  |  |  | 90% | 39.12 nm | 0.086 | 57.21 nm | CCCCC/C=C\C/C=C\CCCCCCCC(=O)OCC(COC(=O)CCC(OCCCCCCCC)OCCCCCCCC)COC(=O)OCCN1CCCC1 (stereo not drawn) [Compound 10, 3-((4,4-bis(octyloxy)butanoyl)oxy)-2-((((2-(pyrrolidin-1-yl)ethoxy)carbonyl)oxy)methyl)propyl (9Z,12Z)-octadeca-9,12-dienoate] | 96% | 871 µg/mL
 |  |  |  | 100% | 37.17 nm | 0.093 | 53.88 nm | CCCCC/C=C\C/C=C\CCCCCCCC(=O)OCC(COC(=O)CCC(OCCCCCCCC)OCCCCCCCC)COC(=O)NCCCN1CCCC1 (stereo not drawn) [Compound 8, 3-((4,4-bis(octyloxy)butanoyl)oxy)-2-((((3-(pyrrolidin-1-yl)propyl)carbamoyl)oxy)methyl)propyl (9Z,12Z)-octadeca-9,12-dienoate] | 106% | 962 µg/mL
100% | 41.82 nm | 0.066 | 56.86 nm |  |  |  |  | CCCCC/C=C\C/C=C\CCCCCCCC(=O)OCC(COC(=O)CCC(OCCCCCCCC)OCCCCCCCC)COC(=O)NCCCN(C)C (stereo not drawn) [Compound 6, 3-((4,4-bis(octyloxy)butanoyl)oxy)-2-((((3-(dimethylamino)propyl)carbamoyl)oxy)methyl)propyl (9Z,12Z)-octadeca-9,12-dienoate] | 90% | 1107 µg/mL
 |  |  |  | 93% | 45.18 nm | 0.091 | 64.69 nm | CCCCC/C=C\C/C=C\CCCCCCCC(=O)OCC(COC(=O)CCC(OCCCCCCCC)OCCCCCCCC)COC(=O)OCC1CCCN1C (stereo not drawn) [Compound 14, 3-((4,4-bis(octyloxy)butanoyl)oxy)-2-(((((1-methylpyrrolidin-2-yl)methoxy)carbonyl)oxy)methyl)propyl (9Z,12Z)-octadeca-9,12-dienoate] | 88% | 908 µg/mL
 |  |  |  | 96% | 64.34 nm | 0.023 | 79.25 nm | CCCCC/C=C\C/C=C\CCCCCCCC(=O)OCC(COC(=O)CCC(OCCCCCCCC)OCCCCCCCC)COC(=O)OCCCN(C)CC (stereo not drawn) [Compound 20, 3-((4,4-bis(octyloxy)butanoyl)oxy)-2-((((3-(ethyl(methyl)amino)propoxy)carbonyl)oxy)methyl)propyl (9Z,12Z)-octadeca-9,12-dienoate] | 46% | 476 µg/mL
 |  |  |  | 97% | 48.22 nm | 0.090 | 68.72 nm | CCCCC/C=C\C/C=C\CCCCCCCC(=O)OCC(COC(=O)CCC(OCCCCCCCC)OCCCCCCCC)COC(=O)OCCN(C)C (stereo not drawn) [Compound 18, 3-((4,4-bis(octyloxy)butanoyl)oxy)-2-((((2-(dimethylamino)ethoxy)carbonyl)oxy)methyl)propyl (9Z,12Z)-octadeca-9,12-dienoate] | 82% | 849 µg/mL
 |  |  |  | 89% | 45.11 nm | 0.058 | 62.99 nm | CCCCC/C=C\C/C=C\CCCCCCCC(=O)OCC(COC(=O)CCC(OCCCCCCCC)OCCCCCCCC)COC(=O)OCCN(CC)CC (stereo not drawn) [Compound 9, 3-((4,4-bis(octyloxy)butanoyl)oxy)-2-((((2-(diethylamino)ethoxy)carbonyl)oxy)methyl)propyl (9Z,12Z)-octadeca-9,12-dienoate] | 100% | 865 µg/mL
 |  |  |  | 94% | 59.75 nm | 0.039 | 75.41 nm | CCCCC/C=C\C/C=C\CCCCCCCC(=O)OCC(COC(=O)CCC(OCCCCCCCC)OCCCCCCCC)COC(=O)OCCCN(C(C)C)C(C)C (stereo not drawn) [Compound 21, 3-((4,4-bis(octyloxy)butanoyl)oxy)-2-((((3-(diisopropylamino)propoxy)carbonyl)oxy)methyl)propyl (9Z,12Z)-octadeca-9,12-dienoate] | 87% | 897 µg/mL

Structure (SMILES) | Encapsulation (%) [1, 3] | Number mean (nm) [2, 4] | PDI [2, 4] | Z-avg (nm) [2, 4] | Encapsulation (%) [1, 5] | Number mean (nm) [2, 6] | PDI [2, 6] | Z-avg (nm) [2, 6] | Serum TTR % TSS (Transthyretin (TTR)) | Serum TTR (Transthyretin (TTR))
CCCCC/C=C\C/C=C\CCCCCCCC(=O)OCC(COC(=O)CCC(OCCCCCCCC)OCCCCCCCC)COC(=O)OCCCCN(CC)CC (stereo not drawn) [Compound 11, 3-((4,4-bis(octyloxy)butanoyl)oxy)-2-((((4-(diethylamino)butoxy)carbonyl)oxy)methyl)propyl (9Z,12Z)-octadeca-9,12-dienoate] |  |  |  |  | 97% | 68.35 nm | 0.022 | 85.35 nm | 78% | 706 µg/mL
